# Data as given in patent publication US8329693B2, “Method for the prevention of thromboembolic disorders” (Orion Corporation, priority 2004, dated 2012).
# Entries after “also recorded” stand apart in the source; their conditions may differ.
# What was measured:
# [1] = tested on: Dahl SS rats on high-salt diet; assay: Mortality in Dahl salt-sensitive rat stroke model (Experiment 2); format: in vivo; conditions: High-Salt diet + Levosimendan 1 mg/kg/day (2 mg/l in drinking water), 7 weeks, n=20; vehicle group 70%
# Procedure: (§1) Effect of levosimendan on the incidence of cerebral strokes in Dahl salt-sensitive rat stroke model was studied using Magnetic Resonance Imaging (MRI) and behavioural tests (Neuroscore and Functional Observational Battery (FOB)).
# (§2) Dahl SS rats were divided into three treatment groups: High-Salt diet+vehicle (n=20), High-Salt diet+Levosimendan 1 mg/kg/day (n=20), and Normal-Salt diet control (n=4). High salt diet contained 7% of NaCl in commercial low salt diet. Feeding with the high-salt diet was started at the age of 6 weeks and continued 7 weeks until the end of the study. Levosimendan was administered via drinking water (2 mg/l of levosimendan in drinking water). The administration was started at the same time as the high-salt diet and continued until the end of the study. The consumption of drinking water and food as well as the body weight and general health of the animals were monitored. MRI was performed once-a-week during the weeks 2-8. FOB and 7-point Neuroscore testing were performed once-a-week during the weeks 1-3 and twice-a-week during weeks the 4-8.
# [2] = tested on: Dahl SS rats on high-salt diet; assay: In vivo T2-weighted MRI of brain lesions, Dahl salt-sensitive rat stroke model; conditions: for share of animals with T2-lesion volume 0 mm^3 / share of animals with T2-lesion volume 1-50 mm^3 / share of animals with T2-lesion volume 51-100 mm^3 / share of animals with T2-lesion volume >200 mm^3: in vivo MRI
# Procedure: as §1, §2
# Diffusion and T2-weighted MRI using Varian Inova console interfaced to a 4.7 T horizontal magnet (Magnex Scientific Ltd.) was performed once-a-week on halothane-anesthetized rats. T2-weighted imaging and quantitative diffusion imaging were used to determine lesion size and to characterize plausible ischaemic lesions in Dahl SS rats. Typical lesions were heterogeneous and consisted of several different regions with different MRI characteristics. Hyperintensity in T2-weighted imaging was found in practically all animals with detectable abnormalities. This can be interpreted as oedematous tissue, which is typical for ischaemic tissue and is, in general, detectable starting at ˜12-24 h after occlusion of the feeding vessel. […] At the high magnetic field (4.7 T) used in this study, any ferromagnetic substance causes local disruption in magnetic field homogeneity which destroys the signal in T2-weighted imaging. This is a characteristic MRI feature for hemorrhage as haemoglobin in blood contains Fe. Thus almost all lesions detected in this study can be characterized to be associated with hemorrhage.
# [3] = tested on: Kininogen; assay: Effect on kininogen expression in rat heart (2-DE gels, silver staining, MALDI-TOF); format: in vivo, Rattus novergicus; conditions: levosimendan orally 20 mg/l in tab water for eight days
# Procedure: Rats were given levosimendan orally 20 mg/l in tab water and controls only tab water for eight days. Hearts were frozen in liquid nitrogen and stored at −80° C. The heart tissues were lyophilized on ice over night and incubated in lysis buffer; 9 M urea, 20 mM Tris-HCl pH 7.4, 50 mM KCl, 3 mM EDTA pH 7.5, 0.5% IPG buffer 3-10 NL, 5 mM PMSF, 1% DTT and Benzoase 100 Units for 10 min at room temperature. The protein solution was then sonicated 2×15 s and centrifuged at 14000 rpm for 5 min. The supernatants were collected and the protein amount measured based on the protein assay kit from BioRad. 40 μg protein solution was diluted in 350 μl of rehydration buffer; 7 M urea, 2 M thiourea, 2 mM TBP, 0.5% IPG buffer 3-10 NL, 4% CHAPS and 0.2% BFB, incubated for 30 min at room temperature and centrifuged for 5 min at 14000 rpm. […]
# The focused strips were equilibrated in the following buffer: 6 M urea, 50 mM Tris-HCl, pH 8.8, 2% SDS, 30% glycerol, 2% DTT, 2.5% iodoacetamide and 0.2% BFB 2×10 min at room temperature. […] The silver stained gels were analyzed by PD-QUEST(6.2) 2-DE software (BIO-RAD). […]
# All samples were prepared by reversed phase pipette tips C18 (ZipTip, Millipore). […] The samples were analyzed in a TOF mass spectrometer (Voyager-DE PRO). […] The masses of the obtained peptides were analysed by the MS-fit program on the Expasy Molecular Biology server PeptIdent.
# [4] = tested on: salt sensitive rat model; assay: Stroke in salt sensitive rat model (summary statements); format: in vivo; conditions: preventative treatment
smiles,measurement,setting,value
"CC1CC(=O)NN=C1c1ccc(NN=C(C#N)C#N)cc1 (single isomer, unassigned; (-)) [levosimendan, (−)-enantiomer of [[4-(1,4,5,6-tetrahydro-4-methyl-6-oxo-3-pyridazinyl)phenyl]hydrazono]propanedinitrile]",mortality during the study,[1],5%
same,noticeable T2-weighted MRI changes,"[2]; 6th week of the study, more than 50% of vehicle treated animals had changes",no changes were observed
same,animals with detectable T2-weighted MRI changes,"[2]; at the last MRI measurement, 85% of vehicle treated animals",10%
same,share of animals with T2-lesion volume 0 mm^3,"[2]; week 2, lesion volume class 0 mm^3, levosimendan 1 mg/kg/day in drinking water",95%
same,share of animals with T2-lesion volume 1-50 mm^3,"[2]; week 2, lesion volume class 1-50 mm^3, levosimendan 1 mg/kg/day in drinking water",5%
same,share of animals with T2-lesion volume 51-100 mm^3,"[2]; week 2, lesion volume class 51-100 mm^3, levosimendan 1 mg/kg/day in drinking water",0%
same,share of animals with T2-lesion volume >200 mm^3,"[2]; week 2, lesion volume class >200 mm^3, levosimendan 1 mg/kg/day in drinking water",0%
same,share of animals with T2-lesion volume 0 mm^3,"[2]; week 3, lesion volume class 0 mm^3, levosimendan 1 mg/kg/day in drinking water",100%
same,share of animals with T2-lesion volume 1-50 mm^3,"[2]; week 3, lesion volume class 1-50 mm^3, levosimendan 1 mg/kg/day in drinking water",0%
same,share of animals with T2-lesion volume 51-100 mm^3,"[2]; week 3, lesion volume class 51-100 mm^3, levosimendan 1 mg/kg/day in drinking water",0%
same,share of animals with T2-lesion volume >200 mm^3,"[2]; week 3, lesion volume class >200 mm^3, levosimendan 1 mg/kg/day in drinking water",0%
same,share of animals with T2-lesion volume 0 mm^3,"[2]; week 4, lesion volume class 0 mm^3, levosimendan 1 mg/kg/day in drinking water",95%
same,share of animals with T2-lesion volume 1-50 mm^3,"[2]; week 4, lesion volume class 1-50 mm^3, levosimendan 1 mg/kg/day in drinking water",5%
same,share of animals with T2-lesion volume 51-100 mm^3,"[2]; week 4, lesion volume class 51-100 mm^3, levosimendan 1 mg/kg/day in drinking water",0%
same,share of animals with T2-lesion volume >200 mm^3,"[2]; week 4, lesion volume class >200 mm^3, levosimendan 1 mg/kg/day in drinking water",0%
same,share of animals with T2-lesion volume 0 mm^3,"[2]; week 5, lesion volume class 0 mm^3, levosimendan 1 mg/kg/day in drinking water",100%
same,share of animals with T2-lesion volume 1-50 mm^3,"[2]; week 5, lesion volume class 1-50 mm^3, levosimendan 1 mg/kg/day in drinking water",0%
same,share of animals with T2-lesion volume 51-100 mm^3,"[2]; week 5, lesion volume class 51-100 mm^3, levosimendan 1 mg/kg/day in drinking water",0%
same,share of animals with T2-lesion volume >200 mm^3,"[2]; week 5, lesion volume class >200 mm^3, levosimendan 1 mg/kg/day in drinking water",0%
same,share of animals with T2-lesion volume 0 mm^3,"[2]; week 6, lesion volume class 0 mm^3, levosimendan 1 mg/kg/day in drinking water",100%
same,share of animals with T2-lesion volume 1-50 mm^3,"[2]; week 6, lesion volume class 1-50 mm^3, levosimendan 1 mg/kg/day in drinking water",0%
same,share of animals with T2-lesion volume 51-100 mm^3,"[2]; week 6, lesion volume class 51-100 mm^3, levosimendan 1 mg/kg/day in drinking water",0%
same,share of animals with T2-lesion volume >200 mm^3,"[2]; week 6, lesion volume class >200 mm^3, levosimendan 1 mg/kg/day in drinking water",0%
same,share of animals with T2-lesion volume 0 mm^3,"[2]; week 7, lesion volume class 0 mm^3, levosimendan 1 mg/kg/day in drinking water",90%
same,share of animals with T2-lesion volume 1-50 mm^3,"[2]; week 7, lesion volume class 1-50 mm^3, levosimendan 1 mg/kg/day in drinking water",0%
same,share of animals with T2-lesion volume 51-100 mm^3,"[2]; week 7, lesion volume class 51-100 mm^3, levosimendan 1 mg/kg/day in drinking water",10%
same,share of animals with T2-lesion volume >200 mm^3,"[2]; week 7, lesion volume class >200 mm^3, levosimendan 1 mg/kg/day in drinking water",0%
same,share of animals with T2-lesion volume 0 mm^3,"[2]; week 8, lesion volume class 0 mm^3, levosimendan 1 mg/kg/day in drinking water",89%
same,share of animals with T2-lesion volume 1-50 mm^3,"[2]; week 8, lesion volume class 1-50 mm^3, levosimendan 1 mg/kg/day in drinking water",5%
same,share of animals with T2-lesion volume 51-100 mm^3,"[2]; week 8, lesion volume class 51-100 mm^3, levosimendan 1 mg/kg/day in drinking water",0%
same,share of animals with T2-lesion volume >200 mm^3,"[2]; week 8, lesion volume class >200 mm^3, levosimendan 1 mg/kg/day in drinking water",5%
same,kininogen protein expression in rat heart versus control,[3],ten fold up-regulated
same,"incidence and volume of brain lesions, behavioural disorders and mortality associated with stroke",[4],reduces and/or postpones; also recorded: markedly reduce
